Earlier results on 2 compounds are cited in patent publication US9585827B2, “Kits comprising a beverage composition and information for use” (The Procter & Gamble Company, priority 2000, dated 2017).

Structures are written as SMILES.

For one series, the system named is dental caries. The settings on record: Städtler et al. 1996; toothpaste formulations of near-neutral pH.
For series [1] the following is noted: Reussner et al. 1975; phosphate added to low pH powdered beverage compositions.

For `O=P1([O-])OP(=O)([O-])OP(=O)([O-])O1.[Na+].[Na+].[Na+]` [trimetaphosphate], the “effect against dental caries” value in the series on dental caries is given as “may be effective against dental caries”. In the case of `O=P1([O-])OP(=O)([O-])OP(=O)([O-])OP(=O)([O-])OP(=O)([O-])OP(=O)([O-])O1.[Na+].[Na+].[Na+].[Na+].[Na+].[Na+]` [sodium hexametaphosphate], the “protective effect against molar erosion” value in series [1] is “did not produce significant protective effects”.
